Data: patent publication US20040018238A1, “Biodegradable vehicles and delivery systems of biolgically active substances” (priority 2003, published 2004)
Structures can show the parent of a compound that is named as a salt.

Tests used:
[1] = In vitro release of naltrexone from drug-loaded formulations at 37° C. in isotonic phosphate buffer; assay type: physicochemical; details: compared with hydrated naltrexone base; 25% 50/50 PLGA (i.v. 0.64) with pure PEG 400 or 50/50% PEG 400/TEC; drug 20% w/w
Procedure: The solutions were stirred to yield a uniform mixture. Acetone was evaporated from the mixtures by heating at 60-75° C. with constant stirring. The blank formulations were kept in a vacuum oven at 60-75° C. overnight to ensure complete removal of acetone. […] Either hydrated naltrexone base (20% w/w) or naltrexone hydrochloride (20% w/w) was added to the blank formulations and mixed thoroughly to ensure uniform distribution of the drugs in the formulations. Drug release from the drug-loaded formulations was performed at 37° C. in isotonic phosphate buffer. […] This is because the solubility of the naltrexone hydrochloride in the dissolution buffer is much greater than that of the hydrated naltrexone base.

[2] = Solubility in water / dissolution buffer; assay type: physicochemical
[3] = In vitro release of oxytetracycline from drug-loaded formulations at 37° C. in isotonic phosphate buffer containing sodium sulfite; assay type: physicochemical; details: for drug release / drug release (rank among plasticizers): drug 20% w/w
Procedure: A polymer (25% w/w of 50/50 lactide-co-glycolide copolymer, inherent viscosity of 0.59) was dissolved in a minimum quantity of acetone. Pure polyethylene glycol 400 (PEG 400) was added to the polymer solution. The solution was stirred to yield a uniform mixture. Acetone was evaporated from the mixture by heating at 60-75° C. with constant stirring. The blank formulation was kept in a vacuum oven at 60-75° C. overnight to ensure complete removal of acetone. […] Three different concentrations of oxytetracycline base (either 10, 20 or 30% w/w) were added to the blank formulation and mixed thoroughly to ensure uniform distribution of the drug in the formulations. Drug release from the drug-loaded formulations was performed at 37° C. in isotonic phosphate buffer containing sodium sulfite as an antioxidant. […] This increase occurred because, at higher drug-loadings, more drug is available on the surface of the formulations for release. Moreover, a higher drug concentration gradient between the formulation and the dissolution medium is expected at 30% w/w drug-loading compared to the one at 10% w/w drug loading.
(§1) A polymer (25% w/w of 50/50 lactide-co-glycolide copolymer, inherent viscosity of 0.59) was dissolved in a minimum quantity of acetone. […] The resulting solutions were stirred to yield uniform mixtures. Acetone was evaporated from the mixtures by heating at 60-75° C. with constant stirring. The blank formulations were kept in a vacuum oven at 60-75° C. overnight to ensure complete removal of acetone. […] Oxytetracycline base (20% w/w) was added to each blank formulation and mixed thoroughly to ensure uniform distribution of the drug in the formulations. Drug release from the drug-loaded formulations was performed at 37° C. in isotonic phosphate buffer containing sodium sulfite as an antioxidant.
Three different concentrations (10, 20 or 25% w/w) of a polymer (50/50 lactide-co-glycolide copolymer, inherent viscosity of 0.59) were dissolved in a minimum quantity of acetone. Pure PEG 400 (90, 80 or 75% w/w) was added to the polymer solutions. The solutions were stirred to yield uniform mixtures. Acetone was evaporated from the mixtures by heating at 60-75° C. with constant stirring. The blank formulations were kept in a vacuum oven at 60-75° C. overnight to ensure complete removal of acetone. The resulting formulations obtained were matrices with varying viscosities or consistency. The formulation with 25% polymer was considerably more viscous than the one with 10% polymer. Oxytetracycline base (20% w/w) was added to each blank formulation and mixed thoroughly to ensure uniform distribution of the drug in the formulations. Drug release from the drug-loaded formulations was performed at 37° C. in isotonic phosphate buffer containing sodium sulfite as an antioxidant.
as §1, with “overmight” for “overnight”
The resulting solutions were stirred to yield uniform mixtures. Acetone was evaporated from the mixtures by heating at 60-75° C. with constant stirring. The blank formulations were kept in a vacuum oven at 60-75° C. overnight to ensure complete removal of acetone. […] Oxytetracycline base (20% w/w) was added to each blank formulation and mixed thoroughly to ensure uniform distribution of the drug in the formulations. […]

[4] = In vivo release of oxytetracycline from biodegradable delivery systems in quail; details: delivery systems with varying polymer molecular weights (FIG. 16)
From the text: FIG. 16 describes the effect of varying polymer molecular weights on in vivo release of oxytetracycline base from biodegradable delivery systems.

In the case of O=C1CC[C@@]2(O)[C@H]3Cc4ccc(O)c5c4[C@@]2(CCN3CC2CC2)[C@H]1O5 [naltrexone hydrochloride], the drug release [1] is reported as “considerably faster” and the “solubility in the dissolution buffer” value ([2]; compared with hydrated naltrexone base, isotonic phosphate buffer) is reported as “much greater”.
With CN(C)[C@@H]1C(=O)C(C(N)=O)=C(O)[C@@]2(O)C(=O)C3=C(O)c4c(O)cccc4[C@@](C)(O)[C@H]3[C@H](O)[C@@H]12 [oxytetracycline base] the drug release ([3]; blend of 75% PEG 400 and 25% TEC compared with 50/50% PEG 400/TEC at similar polymer to plasticizer ratio) was “considerably faster”, the drug release ([3]; effect of decreasing polymer from 25% to 10% (PEG 400 75% to 90%), 50/50 PLGA i.v. 0.59) was “dramatically increased the drug release” and the drug release ([3]; effect of decreasing polymer inherent viscosity from 0.76 to 0.15, 50/50 PLGA, PEG 400) was “dramatically increased the drug release”. For the same molecule, the drug release ([3]; effect of going from 0% PEG 400/100% TEC to 100% PEG 400/0% TEC, 25% w/w 50/50 PLGA (i.v. 0.59)) was “faster drug release”, the “cumulative amount of drug released at the end of 360 hours” value ([3]; effect of increasing drug loading from 10 to 30% w/w, 25% w/w 50/50 PLGA (i.v. 0.59), PEG 400) was “increased the cumulative amount of drug released” and the “drug release (rank among plasticizers)” value ([3]; formulations prepared with ATEC, 25% w/w 50/50 PLGA (i.v. 0.59)) was “slowest”. For the same molecule, the “drug release (rank among plasticizers)” value ([3]; formulations prepared with PEG 400, 25% w/w 50/50 PLGA (i.v. 0.59)) was “fastest”, the “drug release (rank among plasticizers)” value ([3]; formulations prepared with TEC, 25% w/w 50/50 PLGA (i.v. 0.59)) was “Intermediate drug release” and the drug release ([3]; polymer to plasticizer ratio 1:5 (16.67% polymer) compared with 1:3 (25% polymer), PEG 400/TEC blends) was “faster drug release”. The in vivo release [4] was “desired controlled release of the OTC was achieved”.
With CN(C)[C@@H]1C(O)=C(C(N)=O)C(=O)[C@@]2(O)C(O)=C3C(=O)c4c(O)cccc4[C@@](C)(O)[C@H]3[C@H](O)[C@@H]12 [oxytetracycline hydrochloride] the aqueous solubility ([2]; hydrochloride salt compared with the base) was “greater aqueous solubility”.
